Assay [1] has as its target T1, α2 (presynaptic α)-adrenoceptor (Rattus norvegicus, UniProt P22909).
T1 construct: from tissue; host or cells: rat vas deferens (desheathed, field stimulated)
T1 sequence (P22909 1-465): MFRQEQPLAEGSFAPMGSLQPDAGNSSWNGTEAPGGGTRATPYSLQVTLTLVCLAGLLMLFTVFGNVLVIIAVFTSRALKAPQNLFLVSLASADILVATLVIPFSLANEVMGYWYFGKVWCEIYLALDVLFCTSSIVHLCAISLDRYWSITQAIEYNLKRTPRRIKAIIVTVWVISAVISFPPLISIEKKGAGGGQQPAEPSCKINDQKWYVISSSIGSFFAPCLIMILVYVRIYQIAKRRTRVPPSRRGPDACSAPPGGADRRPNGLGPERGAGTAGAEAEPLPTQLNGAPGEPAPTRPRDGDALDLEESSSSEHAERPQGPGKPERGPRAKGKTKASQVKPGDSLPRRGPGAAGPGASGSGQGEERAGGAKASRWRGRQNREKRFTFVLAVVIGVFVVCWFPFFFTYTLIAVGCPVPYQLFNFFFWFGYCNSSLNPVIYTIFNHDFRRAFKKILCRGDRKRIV
Briefly: α2-adrenoceptor antagonistic activity on the rat field stimulated vas deferens preparation (clonidine agonist). It counts as cell-based. As to conditions: clonidine as agonist, Arunlakshana & Schild, read-out: pA2 (α2) (converted). The method, then: The compounds of the invention were tested for their α2 -adrenoceptor antagonistic activity on the rat field stimulated vas deferens preparation using a modification of the method of Drew, Eur.J.Pharmac., 1977, 42, 123-130. The procedure is described below. […] from sexually mature rats were suspended in a 6 ml organ bath in Krebs solution at 37° and bubbled with 5% CO2 in oxygen. Platinum ring electrodes were positioned above and below the tissue for field stimulation, the stimulus parameters being 0.1 Hz 1 ms pulse width at supramaximal voltage. Twitch responses were recorded isotonically with a 0.5 g loading. […] After washing out clonidine, the twitch response quickly recovered and an antagonist was then introduced into the Krebs reservoir. Clonidine concentration-response curves were repeated 90 min after introduction of the antagonist. The concentration of clonidine producing 50% inhibition of twitch before and after introduction of antagonist were obtained and the dose-ratio for clonidine was calculated. Various concentrations of the antagonists were used. […] Chemother., 1959, 14, 48-58 and the values of pA2 and slope were calculated.

Assay [2] has as its target T2, postsynaptic (α1) α-adrenoceptor (Rattus norvegicus, UniProt P43140).
T2 construct: the isolated anococcygeus muscle of the rat; from tissue; host or cells: rat anococcygeus muscle (male rats, 250-360 g)
T2 sequence (P43140 1-466): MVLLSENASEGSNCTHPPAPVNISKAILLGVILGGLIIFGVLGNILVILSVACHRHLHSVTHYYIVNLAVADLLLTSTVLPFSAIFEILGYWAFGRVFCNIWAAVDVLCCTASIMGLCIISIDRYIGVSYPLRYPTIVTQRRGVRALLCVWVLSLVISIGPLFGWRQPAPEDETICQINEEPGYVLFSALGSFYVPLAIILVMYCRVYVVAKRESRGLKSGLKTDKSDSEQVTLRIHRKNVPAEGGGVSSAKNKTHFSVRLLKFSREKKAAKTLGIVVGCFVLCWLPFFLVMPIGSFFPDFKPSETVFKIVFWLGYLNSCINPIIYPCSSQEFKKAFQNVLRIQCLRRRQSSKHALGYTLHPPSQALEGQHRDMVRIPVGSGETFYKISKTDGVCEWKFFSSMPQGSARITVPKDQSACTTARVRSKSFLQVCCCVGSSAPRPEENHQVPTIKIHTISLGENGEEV
Briefly: postsynaptic (α1) antagonistic activity on the isolated anococcygeus muscle of the rat (phenylephrine or methoxamine agonist). It counts as cell-based. As to conditions: rat anococcygeus muscle; phenylephrine or methoxamine as agonist; α1; read-out: pA2 (postsynaptic) (converted). An excerpt:
(§1) The postsynaptic(α1)antagonistic activity can be evaluated by a number of different methods. One method involves assessing the activity on the isolated anococcygeus muscle of the rat. The method is based on that of Gillespie, Br.J.Pharmac., 1972, 45, 404-416. In the procedure male rats (250-360 g) are killed by a blow on the head and bled. The two anococcygeus muscles are removed from their position in the midline of the pelvic cavity, where they arise from the upper coccygeal vertebrae. The muscles are suspended in 5 ml organ baths in Krebs solution containing 10^-4 M ascorbic acid, to prevent drug oxidation. The tissues are gassed with a 95% oxygen, 5% CO2 mixture and maintained at 37°. Longitudinal muscle contractions are recorded using isotonic transducers. Cumulative dose response curves are then obtained to phenylephrine or in some cases methoxamine, both agents being postsynaptic alpha adrenoceptor agonists. The concentration range of phenylephrine or methoxamine used is 0.02 to 0.8 μg.ml^-1. The agonist is then washed from the bath and the test drug added to the bathing medium at a concentration of 10^-6 M. After 30 min. equilibration with the test drug a further agonist dose response curve is obtained. The washing, equilibration and agonists dosing procedures are then repeated using 10^-5 M and 10^-4 M solutions of the test drug. Estimates of the pA2 value for the test drug as an antagonist of phenylephrine or methoxamine were made from the agonist dose-ratios using the method of Arunlakshana & Schild, Br.J.Pharmac.Chemother., 1959, 14, 48-58.

For assay [3], the system named is postsynaptic (α1) α-adrenoceptor. Described as above. It counts as cell-based.
Description: as §1

Assay [4] has as its system hyperglycaemia induced by the α2 agonist clonidine. Briefly: inhibition of clonidine-induced hyperglycaemia in rats. As to conditions: 10 mg/kg, clonidine 15 μg/kg subcutaneous. Type of assay: in vivo, rat.
The subject of assay [5] is human blood platelets. Briefly: inhibition of adrenaline-induced aggregation in vitro of human blood platelets. It counts as cell-based.
The test system of assay [6] is rats rendered hypertensive by implantation of desoxycorticosterone acetate. Briefly: hypotensive activity in rats rendered hypertensive by implantation of desoxycorticosterone acetate. It counts as in vivo, rat.

`CN([C@@H]1CCN2CCc3ccccc3[C@@H]2C1)S(C)(=O)=O` (relative stereo) [A, N-Methyl-N-(1,3,4,6,7,11bα-hexahydro-2H-benzo[a]quinolizin-2β-yl)methanesulphonamide]: the results for the Kb in assay [1] and in assay [2] were 20 nM and 1120 nM, respectively. Further, the α2 selectivity in assay [3] is reported as 56. Besides, in assay [4], the “inhibition of the hyperglycaemia induced by clonidine” value is “inhibited the hyperglycaemia”. Further, the “inhibition of the aggregation in vitro of human blood platelets induced by adrenaline” value in assay [5] is recorded as “inhibit the aggregation”. Besides, the hypotensive activity entry in assay [6] was “do not possess substantial hypotensive activity”.

The values above are taken from US4454139A, “α2 -Adrenoceptor antagonistic benzoquinolizines” (John Wyeth & Brother, Limited, priority 1980, dated 1984).
